{"source": "patent US9770451B2", "about": "“Composition including ATM inhibitor for reducing cellular senescence and use of the composition” (Samsung Electronics Co., Ltd., priority 2014, dated 2017)", "key": {"[1]": {"tested_on": "progeria senescent fibroblasts (passage 17)", "assay": "DNA comet assay", "format": "cell-based, human", "conditions": "CP-466722 0.1 μM, 4 weeks", "description": "To determine the extent of recovery of the senescent cells to the DNA damage in accordance with the ATM-kinase inhibitor, the DNA comet assay (Trevigen, 4250-050-K) was carried out according to the protocol of the manufacturer. The principle of the DNA comet assay is based on gel electrophoresis. The damaged DNA moves farther away in the electrophoresis process than the undamaged DNA, resulting in the formation of a comet-tail shape. Afterwards, a slide used herein was stained with cyber green (SYBR Green), so that the tail length of the DNA fragment was measured by using fluorescence microscopy to confirm the extent of the DNA damage. The extent of the DNA damage may be measured as a tail moment value obtained by multiplying tail DNA % by the distance of migration of DNA fragmentation from the nucleus or the tail length. […]\nTo determine the extent of recovery of the senescent cells to the DNA damage in accordance with the ATM-kinase inhibitor, the DNA comet assay (Trevigen, 4250-050-K) was carried out according to the protocol of the manufacturer. […] Afterwards, a slide used herein was stained with cyber green (SYBR Green), so that the tail length of the DAN fragment was measured by using fluorescence microscopy to confirm the extent of the DNA damage. […]"}, "[2]": {"tested_on": "senescent myoblasts (passage 11)", "assay": "Lipofuscin autofluorescence (FACS)", "format": "cell-based, human", "conditions": "CP-466722 0.1 μM, 4 weeks", "description": "In addition, the amounts of lipofuscin in the cells cultured as described above were measured. The senescent myoblast (passage 11) that became senescent in the presence of KU-60019 (0.5 μM) were cultured in a CO2 incubator at a temperature of 37° C. for 4 weeks. The medium was replaced by a fresh medium containing KU-60019 (0.5 μM), once every 4 days. Lipofuscin is characterized by having autofluorescence capability, and in this regard, the cultured cells were irradiated with a wavelength of 488 nm by using a FACSCaliber (Beckton Dickinson), and then, measured with radiation emitted from a wavelength of 520 nm. The results were analyzed using Cell Quest 3.2 software (Beckton Dickinson). FIG. 17 is a graph showing lipofuscin measured in the cells that were cultured in the presence of KU-60019.\nIn addition, the amounts of lipofuscin in the cells cultured as described above were measured. […] Lipofuscin is characterized by having autofluorescence capability, and in this regard, the cultured cells were irradiated with a wavelength of 488 nm by using a FACSCaliber (Beckton Dickinson), and then, measured with radiation emitted from a wavelength of 520 nm. The results were analyzed using Cell Quest 3.2 software (Beckton Dickinson). FIG. 23 is a graph showing lipofuscin measured in the cells that were cultured in the presence of CP-466722."}}}
{"smiles": "COc1cc2ncnc(-n3nc(-c4ccccn4)nc3N)c2cc1OC", "note": "[CP-466722, 2-(6,7-dimethoxyquinazolin-4-yl)-5-(pyridin-2-yl)-2H-1,2,4-triazol-3-amine]", "values": [{"measurement": "DNA damage (tail moment) vs DMSO control", "setting": "[1]", "value": "significantly decreased"}, {"measurement": "amount of lipofuscin vs control", "setting": "[2]", "value": "significantly decreased"}]}
